Measured values reported in US20150284353A1, “Sesquiterpene lactone-based pharmaceutical composition for treating gastrointestinal diseases” (CHO DANG PHARM. CO., LTD., priority 2012, published 2015).
Entries after “also recorded” stand apart in the source; their conditions may differ. Marks after values point to notes of the source that are not given here. Values belong to the compound of their own block, whether it stands above or below them.

Legend:
[1] = test system: HCl-Ethanol inducing gastritis model; test: HCl-Ethanol inducing gastritis model; assay type: in vivo, white rats; conditions: for Lesion inhibition rate: Table 2, ineffective compounds, dose not given; for ED50: regression analysis, read-out: 50% effective dose (ED50)
Description: After white rats have been fasted for 24 hours, CD-101, CD-102 and CD-103 compound have been orally administered according to method disclosed in Mizui et al., Jap. J. Pharmacol. 33: pp. 939-945 (1983). After 1 hour, 1.5 ml of 60% ethanol including 150 mM HCl has been orally administered to each animal. 1 hour later, animals have been sacrificed by cervical dislocation. After removing the stomach, the stomach has been fixed by injection of 13 ml of 2% formalin for 1 hour. After fixed stomach has been spread out, the lesion area has been measured using the photo by digital camera. Computer program Image J 1.38 (NIH, Bethesda, Md.) has been applied for measuring gastric lesion area (mm^2). The lesion inhibition rate has been calculated according to following equation. Further, 50% effective dose (ED50) has been also calculated using regression analysis.
Lesion inhibition rate(%)={gastric lesion area of control group(mm^2)−gastric lesion area of drug administration group(mm^2)}/gastric lesion area of control group(mm^2)×100

[2] = test system: Chinese hamster lung (CHL) cell; test: Chromosomal aberration test; assay type: cell-based; conditions: for induction of chromosomal aberration: CHL cell
Text: For measuring the induction of chromosomal aberration, the chromosomal aberration test has been carried out using Chinese hamster lung (CHL) cell. 2 kinds of methods have been adopted, such as, metabolic activation method (+S9) using metabolic activation system and direct method (−S9) without metabolic activation system.
For determining the test material reacting concentration, the cell growth inhibition test has been carried out. The test material has been dissolved and diluted in dimethyl sulfoxide (DMSO). Regardless of metabolic activation system, 12 concentration steps (2.43, 4.87, 9.75, 19.5, 39.1, 78.1, 156.3, 312.5, 625, 1250, 2500, 5000 μg/ml) of test material have been prepared. The cells have been cultured for 24 hours as the same way of main test. […] The medium has been further cultured for 18 hours.
Based upon the data of cell growth inhibition test, maximum concentration has been determined when the cell growth has been inhibited up to 50% as the relative cell numbers.
Regardless of metabolic activation system, the test materials have been prepared after 24 hours from the initiation of test. Then, the number of chromosomal aberration has been counted.

[3] = test system: indomethacin inducing stomach ulcer model; test: indomethacin inducing stomach ulcer model; assay type: in vivo, white rats; conditions: oral; for ED50: regression analysis, read-out: 50% effective dose (ED50)
Description: After white rats have been fasted for 24 hours, CD-101, CD-102 and CD-103 compound have been orally administered according to method disclosed in Yamasaki et al., Jap. J. Pharmacol. 49: pp. 441-448 (1989). After 1 hour, indomethacin (50 mg/kg) has been orally administered to each animal. After fasting for 5 hours, animals have been sacrificed by cervical dislocation. After removing the stomach, the stomach has been fixed by injection of 13 ml of 2% formalin for 1 hour. After fixed stomach has been spread out, the lesion area has been measured using the photo by digital camera. Computer program Image J 1.38 (NIH, Bethesda, Md.) has been applied for measuring gastric lesion area (mm^2). The lesion inhibition rate and 50% effective dose (ED50) have been calculated as the same manner of HCl-EtOH model.

[4] = Rattus norvegicus, dose 1 mg/kg, read-out: Lesion inhibition rate
[5] = Rattus norvegicus, dose 3 mg/kg, read-out: Lesion inhibition rate
[6] = Rattus norvegicus, dose 10 mg/kg, read-out: Lesion inhibition rate
[7] = Rattus norvegicus, oral, dose 1 mg/kg, read-out: Lesion inhibition rate
[8] = Rattus norvegicus, oral, dose 3 mg/kg, read-out: Lesion inhibition rate
[9] = Rattus norvegicus, oral, dose 10 mg/kg, read-out: Lesion inhibition rate

SMILES: CO[C@]1(C)CC[C@H]2C(CN(C)CCO)C(=O)O[C@@H]2[C@@H]2[C@H]1CC[C@@]2(C)O (stereo partly drawn)
Lesion inhibition rate [1]: no effect

SMILES: CC1=C2C3OC(=O)[C@@H](C)[C@@H]3CC[C@@]2(C)C=CC1=O (stereo partly drawn)
Lesion inhibition rate [1]: no effect

Results (chromosomal aberration) ([2]; +S9, dose 5 μg/ml): negative
Results (chromosomal aberration) ([2]; +S9, dose 10 μg/ml): negative
Results (chromosomal aberration) ([2]; +S9, dose 20 μg/ml): negative
induction of chromosomal aberration [2]: do not induce the chromosomal aberration
Results (chromosomal aberration) ([2]; −S9, dose 1.25 μg/ml): negative
Results (chromosomal aberration) ([2]; −S9, dose 2.5 μg/ml): negative
Results (chromosomal aberration) ([2]; −S9, dose 5 μg/ml): negative
SMILES: C=C1CC[C@H]2C(=C)C(=O)O[C@@H]2C2[C@H]1CC[C@@]2(C)O (stereo partly drawn) [CD-102]
inhibition at 1 mg/kg [3, 4]: 41.6%
inhibition at 3 mg/kg [3, 5]: 56.1%
inhibition at 10 mg/kg [3, 6]: 77.2%
ED50 ([3]; Rattus norvegicus): 1.82 mg/kg
Gastric lesion area ([3]; dose 1 mg/kg): 35.0 ± 5.2 mm^2
Gastric lesion area ([3]; dose 3 mg/kg): 26.3 ± 6.8* mm^2
Gastric lesion area ([3]; dose 10 mg/kg): 13.6 ± 2.9* mm^2
inhibition at 1 mg/kg [1, 7]: 43%
inhibition at 3 mg/kg [1, 8]: 70.4%
inhibition at 10 mg/kg [1, 9]: 94.9%
ED50 ([1]; Rattus norvegicus, oral): 1.31 mg/kg
Gastric lesion area ([1]; oral, dose 1 mg/kg): 133.5 ± 21.0* mm^2
Gastric lesion area ([1]; oral, dose 3 mg/kg): 69.4 ± 18.4* mm^2
Gastric lesion area ([1]; oral, dose 10 mg/kg): 11.9 ± 10.0* mm^2

SMILES: CC(C)=C1C(=O)COC1=O
Lesion inhibition rate [1]: no effect

Result (chromosomal aberration test) ([2]; Table 5, + S9): positive positive
Result (chromosomal aberration test) ([2]; Table 5, − S9): positive positive
SMILES: CC(=O)O[C@@H]1/C=C(\C)CCC/C(C)=C/[C@H]2OC(=O)[C@H](CN(C)C)C12 (stereo partly drawn) [reference compound]

SMILES: C=C1CC[C@@H]2[C@](C)(CO)[C@H](O)CC[C@@]2(C)[C@@H]1C/C=C1/C(=O)OC[C@H]1O
Lesion inhibition rate [1]: no effect

Results (chromosomal aberration) ([2]; +S9, dose 2.5 μg/ml): negative
Results (chromosomal aberration) ([2]; +S9, dose 5 μg/ml): negative
Results (chromosomal aberration) ([2]; +S9, dose 10 μg/ml): negative
induction of chromosomal aberration [2]: do not induce the chromosomal aberration
Results (chromosomal aberration) ([2]; −S9, dose 0.625 μg/ml): negative
Results (chromosomal aberration) ([2]; −S9, dose 1.25 μg/ml): negative
Results (chromosomal aberration) ([2]; −S9, dose 2.5 μg/ml): negative
SMILES: C=C1C(=O)O[C@@H]2[C@@H]3[C@@H](CC[C@@]3(C)O)[C@](C)(OC)CC[C@@H]12 [CD-103]
inhibition at 1 mg/kg [3, 4]: 37.9%
inhibition at 3 mg/kg [3, 5]: 57.3%
inhibition at 10 mg/kg [3, 6]: 74%
ED50 ([3]; Rattus norvegicus): 2.06 mg/kg
Gastric lesion area ([3]; dose 1 mg/kg): 37.2 ± 7.0 mm^2
Gastric lesion area ([3]; dose 3 mg/kg): 25.6 ± 4.7* mm^2
Gastric lesion area ([3]; dose 10 mg/kg): 15.6 ± 3.1* mm^2
inhibition at 30 mg/kg ([1]; Rattus norvegicus, oral, 30 mg/kg administration group, read-out: lesion inhibition rate): 99.5%
inhibition at 1 mg/kg [1, 7]: 56.9%
inhibition at 3 mg/kg [1, 8]: 66.9%
inhibition at 10 mg/kg [1, 9]: 99.5%
ED50 ([1]; Rattus norvegicus, oral): 2.55 mg/kg
Gastric lesion area ([1]; oral, dose 1 mg/kg): 80.8 ± 19.4* mm^2
Gastric lesion area ([1]; oral, dose 3 mg/kg): 62.1 ± 32.2* mm^2
Gastric lesion area ([1]; oral, dose 10 mg/kg): 1.0 ± 0.4* mm^2

Result (chromosomal aberration test) ([2]; Table 5, + S9): positive positive
Result (chromosomal aberration test) ([2]; Table 5, − S9): positive positive
SMILES: C=C1C(=O)O[C@@H]2/C=C(\C)CC/C=C(\C)C[C@@H](OC(C)=O)C12 (stereo partly drawn) [reference compound]

Results (chromosomal aberration) ([2]; +S9, dose 10 μg/ml): negative
Results (chromosomal aberration) ([2]; +S9, dose 20 μg/ml): negative
Results (chromosomal aberration) ([2]; +S9, dose 40 μg/ml): negative
Results (chromosomal aberration) ([2]; −S9, dose 2.5 μg/ml): negative
Results (chromosomal aberration) ([2]; −S9, dose 5 μg/ml): negative
Results (chromosomal aberration) ([2]; −S9, dose 10 μg/ml): negative
SMILES: C=C1C(=O)O[C@@H]2[C@@H](O)[C@]3(C)CC[C@H]3[C@](C)(OC)CC[C@@H]12 [CD-101]
induction of chromosomal aberration [2]: neither cytotoxicity nor chromosomal aberration; also recorded: do not induce the chromosomal aberration
inhibition at 1 mg/kg [3, 4]: 26.9%
inhibition at 3 mg/kg [3, 5]: 56.6%
inhibition at 10 mg/kg [3, 6]: 73.1%
ED50 ([3]; Rattus norvegicus): 2.78 ± 0.1 mg/kg
Gastric lesion area ([3]; dose 1 mg/kg): 43.8 ± 7.7 mm^2
Gastric lesion area ([3]; dose 3 mg/kg): 26.0 ± 4.7* mm^2
Gastric lesion area ([3]; dose 10 mg/kg): 16.1 ± 4.8* mm^2
inhibition at 1 mg/kg [1, 7]: 42.3%
inhibition at 3 mg/kg [1, 8]: 74.7%
inhibition at 10 mg/kg [1, 9]: 91.8%
ED50 ([1]; Rattus norvegicus, oral): 1.24 ± 0.1 mg/kg
Gastric lesion area ([1]; oral, dose 1 mg/kg): 135.1 ± 43.1 mm^2
Gastric lesion area ([1]; oral, dose 3 mg/kg): 59.3 ± 23.5* mm^2
Gastric lesion area ([1]; oral, dose 10 mg/kg): 19.2 ± 11.7* mm^2

SMILES: O=C(NC(Cc1cc(=O)[nH]c2ccccc12)C(=O)O)c1ccc(Cl)cc1 (stereo not drawn) [Rebamipide, reference compound]
inhibition at 50 mg/kg ([3]; Rattus norvegicus, dose 50 mg/kg, read-out: Lesion inhibition rate): 49.6%
Gastric lesion area ([3]; dose 50 mg/kg): 30.2 ± 6.4* mm^2
inhibition at 50 mg/kg ([1]; Rattus norvegicus, oral, dose 50 mg/kg, read-out: Lesion inhibition rate): 30%
Gastric lesion area ([1]; oral, dose 50 mg/kg): 163.9 ± 15.6 mm^2

SMILES: CO[C@@]12[C@H](COC(N)=O)C3=C(C(=O)C(C)=C(N)C3=O)N1C[C@@H]1N[C@@H]12 [Mitomycin C, reference compound]
Results (chromosomal aberration) ([2]; −S9, dose 0.5 μg/ml): positive

SMILES: CN(C)c1ccc(/C=C2\CCOC2=O)cc1
Lesion inhibition rate [1]: no effect

SMILES: CO[C@]1(C)CC[C@H]2C(CN(C)CCO)C(=O)O[C@@H]2[C@@H](O)[C@]2(C)CC[C@H]21 (stereo partly drawn)
Lesion inhibition rate [1]: no effect

Result (chromosomal aberration test) ([2]; Table 5, + S9): positive positive
Result (chromosomal aberration test) ([2]; Table 5, − S9): positive positive
SMILES: C=C1C(=O)O[C@@H]2/C=C(\C)CCC(O)C(C)(O)C[C@@H](OC(C)=O)C12 (stereo partly drawn) [reference compound]
